Test results from article PMC9599717, “The Multicellular Effects of VDAC1 N-Terminal-Derived Peptide” (Biomolecules, 2022).

Tests used:
[1] = test system: MEC-1 (human B-cell chronic lymphocytic leukemia); test: Cell death by PI staining and flow cytometry (FACS), MEC-1; format: cell-based; conditions: MEC-1 cells, 1.5 h
Procedure: MEC-1 cells were incubated in a serum-free medium with various concentrations of VDAC1-based peptides for 1.5 h at room temperature (RT), collected by centrifugation, washed with phosphate-buffered saline (PBS), and analyzed for cell death. Adherent cancer cells were seeded in culture plates and allowed to adhere overnight in a sterile cell culture incubation chamber maintained at 37 °C and 5% CO2. The next day, media was removed from the plates, and cells were treated with various concentrations of VDAC1-based peptides for the indicated time in serum-free Dulbecco’s Modified Eagle Medium (DMEM) with and without DMSO (final 0.15%) as a control for 6 h at 37 °C and 5% CO2. Cells were trypsinized, centrifuged (1500× g, 5 min), and washed with PBS.
Cell death was analyzed by the propidium iodide (PI) staining, followed by flow cytometry with the iCyt sy3200 Benchtop Cell Sorter/Analyzer and analysis with EC800 v 1.3.7 software (Sony Biotechnology Inc., San Jose, CA, USA). Apoptosis was analyzed by PI and annexin V-FITC staining, which was carried out according to the manufacturer’s instructions with minor modifications. […] Next, cells were washed and PI (6.25 μg/mL), was added immediately before flow cytometry At least 10,000 events were collected, recorded on a dot plot, and analyzed by flow cytometry. […]

VDAC1 = test: Microscale thermophoresis (MST) binding to fluorescently labeled purified VDAC1; conditions: fluorescently labeled purified VDAC1 (138 nM); actin 10–500 nM, tubulin 20–2000 nM; 10 mM Tricine pH 7.4, 100 mM NaCl; read-out: Kd of interaction with VDAC1 (MST)
Procedure: Purified VDAC1 was fluorescently labeled using the NanoTemper Protein-Labeling Blue Kit. Fluorescently labeled VDAC1 was incubated with different concentrations of actin, tubulin, or peptides in 10 mM Tricine buffer (pH 7.4) containing 100 mM NaCl. After a 20-min incubation, 8–10 μL aliquots were loaded into microscale thermophoresis (MST) grade glass capillaries (NanoTemper Technologies, Munich, Germany), and thermophoresis was measured with the NanoTemper Monolith-NT115 system (20/40% light-emitting diode, 40% infrared laser power).
Figure 5 D-Δ(1-18)N-Ter-Antp altered actin filament organization (A,B) U-87MG cells were cultured and incubated for 24 h with D-Δ(1-18)N-Ter-Antp (10 µM). Cells were stained for actin using Phalloidin-488 and visualized by confocal microscopy (A) and quantified for Phalloidin-488 staining intensity (B). The results were from triplicates of different biological repeats and are presented as the means ± SEM. * p ≤ 0.05; ** p ≤ 0.01. (C) Maximum intensity projection of super-resolution (SIM) microscopy image. […] (D) Actin interaction with VDAC1 analyzed using the MST method. […] (E) In vitro G-actin polymerization was monitored, as described in the Method section. […]
Figure 6 D-Δ(1-18)N-Ter-Antp altered tubulin filament organization. […] Quantification of tubulin staining intensity (B). […] (D) Tubulin (20–2000 nM) interaction with VDAC1 analyzed using the MST method.

Substance	Maximal cell death (at the concentration for maximal cell death) [1] [%]	Kd (VDAC1) [nM]
11-GKSARDVFTKGYGFGL-26- RRMKWKK [Δ(1-10)N-Ter-min-Antp, VDAC1 N-terminal residues 11-26 fused to minimal Antp]	20	
actin		30
